This is an account of results in patent publication US20210212960A1, “IDENTIFICATION OF SEIZURE SUSCEPTIBILITY REGION IN WOLF-HIRSCHHORN SYNDROME AND TREATMENT THEREOF” (Lineagen, Inc., priority 2016, published 2021).

Data set [1] concerns seizures in Dravet patients. The note with it: cited from earlier work; for effectiveness of seizure treatment: individuals with Dravet syndrome.
Data set [2] relates to seizures in individuals with WHS and with Dravet syndrome. The note with it: individuals with WHS as well as individuals with Dravet syndrome; cited from earlier work.
Data set [3] deals with seizures in patients with 15q Duplication syndrome. The settings on record: cited from earlier work.
Data set [4] concerns seizures in individuals with WHS. Put plainly: Online survey of 4p-Support Group parents: seizure control outcome by seizure treatment in WHS (Example 5). The class given is in vivo, human. The note with it: for Seizure control outcome: Complete control, Percent / Seizure control outcome: Increased number of seizure, Percent / Seizure control outcome: Less than 50% reduction, Percent / Seizure control outcome: No change, Percent / Seizure control outcome: ≥50% reduction, Percent: percent of users of the medication. An excerpt: This study and all recruitment materials were approved by the University of Utah IRB (IRB_00064655). The cohort for this study was recruited from the 4p-Support Group, which is comprised of parents and caretakers of individuals with WHS. Inclusion criteria were: 1) a genetic diagnosis of WHS and 2) at least one seizure treatment had been used for seizure control. An invitation to participate in the survey was sent out to all members of the 4p-Support Group email list (representing approximately 300 individuals with WHS) and posted on the 4p-Support Group's Facebook page. Individuals self-identifying as a parent or caretaker of an individual with WHS and a history of seizures, who had tried at least one seizure treatment, were invited to participate. The invitation described the purpose of the study and provided a link to the online survey.
The survey was developed by expanding the seizure history and treatment sections of a previous survey used by Ho et al (J Med Genet 2016; 53:256-263). The online survey was hosted by the HIPAA-compliant platform, RedCAP, and consisted of four sections. The first section collected general demographic information about the individual with WHS. Two additional questions were added to confirm whether the individual had genetic testing to confirm the diagnosis of WHS and ascertain which type of genetic testing had been completed. The second section focused on seizure history. This included age of onset, types of seizures, seizure duration, status epilepticus (seizures lasting longer than 30 minutes), and whether the individual still experiences seizures or is seizure free. The third section asked about antiepileptic drugs (AEDs) used for seizure treatment. Participants were asked to list each AED or combination of AEDs tried in chronological order. For each AED or combination of AEDs participants were asked about duration, effect on number of seizures, side effects, and reasons for discontinuing that AED or combination of AEDs. There were also questions about whether the individual was on a ketogenic diet or using cannabis oil during that time. Space for additional comments about each AED or combination of AEDs tried was also provided. The fourth section contained questions about use of ketogenic diet or cannabis oil while in the absence of AEDs. Again participants were asked about duration, effect on number of seizures, side effects, and reasons for discontinuing. In the case of cannabis oil use, participants were asked to specify whether pure cannabis oil or a THC mixture was used.
The levels of seizure control outcome were grouped into five categories: increased number of seizure, no change, less than 50% reduction, >50% reduction, and complete control.
When a medication was used multiple times (or when looking at combined medication), the seizure control outcome was scored as the best response among all of them. The most frequently used 5 medications reported in this cohort are phenobarbital, diazepam, lamotrigine, valproic acid (sodium valproate) and levetiracetam. We used frequency and percentages to describe the seizure control outcome of these five medications. The Kruskal-Wallis test was performed to evaluate the level of seizure control achieved with these five medications. The Wilcoxon rank sum test was performed to evaluate the hypothesis of the different seizure control outcomes between carbamazepine and levetiracetam. Comparison of the seizure control outcome based on whether levetiracetam was used first or later, was performed by the Cochran Armitage test. Statistical analysis was conducted using SAS 9.4 (SAS Inc., N.C.).

Data set [5] shares this test system. The data set is described as follows: Parent-reported responses to seizure medications, questionnaire of the 48-individual WHS cohort (Example 1). It counts as in vivo, human. The settings on record: n users per drug; for Negative reports: number of unprompted parent reports of a negative reaction causing stop of the drug or no control over seizures; for Positive reports: number of unprompted parent reports of significant and observable increase in control over seizures. An excerpt: This questionnaire captures the health, medical profile, developmental history, and treatment responses of individuals with WHS. For the present study, the focus was on the presence or absence of seizures, age of seizure onset, types of seizures, antiepileptic drugs (AEDs) used and responses to these AEDs, as well as responses to the ketogenic diet. For cases with incomplete, contradictory or unclear parental responses, medical records of patients were consulted. When available medical records were also incomplete, ‘no answer’ is indicated in the relevant text and tables.
AED responses were scored as negative if the patients' parents reported a negative reaction (allergic reaction or other) without prompting that caused them to stop using that drug, or if the drug conferred no control over seizures.

Data set [6] deals with seizures of this subtype of CDG. The note with it: subtype of CDG caused by genes functioning like PIGG; cited from earlier work.
Setting [7] is: levetiracetam used as first AED (n = 31).
Where [8] appears, read: levetiracetam used later in treatment (n = 27).

Consider `NC(=O)N1c2ccccc2C=Cc2ccccc21` [Carbamazepine], for which, in data set [1] (Dravet syndrome), the “aggravates seizures, share of Dravet patients” value is listed as 20% and the “no benefit, share of Dravet patients” value is 78%. Also, the effect on seizures result in data set [2] is “exacerbate seizures”. In addition, in data set [3], the “response to seizure treatment” value was “generally responded well”. In data set [4], the “Seizure control outcome: Complete control, Percent” value is listed as 18.18%; the “Seizure control outcome: Increased number of seizure, Percent” value is on record as 27.27%; the “Seizure control outcome: Less than 50% reduction, Percent” value is 18.18%; the “Seizure control outcome: No change, Percent” value came to 27.27%. In data set [4], the “Seizure control outcome: ≥50% reduction, Percent” value stood at 9.09%.
In the case of `CN1C(=O)CN=C(c2ccccc2)c2cc(Cl)ccc21` [Diazepam], in data set [4], the “Seizure control outcome: Complete control, Percent” value is recorded as 31.25%; the “Seizure control outcome: Less than 50% reduction, Percent” value was 6.25%; the “Seizure control outcome: No change, Percent” value is on record as 25%; the “Seizure control outcome: ≥50% reduction, Percent” value stood at 37.5%.
For the compound `Nc1nnc(-c2cccc(Cl)c2Cl)c(N)n1` [Lamotrigine], the effect on seizures result in data set [2] is reported as “exacerbate seizures”. In addition, in data set [4], the “Seizure control outcome: Complete control, Percent” value stood at 31.25%; the “Seizure control outcome: Less than 50% reduction, Percent” value stood at 6.25%; the “Seizure control outcome: No change, Percent” value stood at 12.5%; the “Seizure control outcome: ≥50% reduction, Percent” value is listed as 50%.
As to `CC[C@@H](C(N)=O)N1CCCC1=O` [Levetiracetam], in data set [5], the Negative reports is 1 and the Positive reports came to 4. Moreover, the “response to seizure treatment” value in data set [3] is on record as “generally responded well”. In addition, in data set [4] (setting [7]), the “Complete control, First use, %” value is 61.29%; the “Less than 50% reduction, First use, %” value is listed as 3.23%; the “No change, First use, %” value came out at 3.23%; the “≥50% reduction, First use, %” value stood at 32.26%. Besides, in data set [4] (setting [8]), the “Complete control, Later use, %” value stood at 51.85%; the “Less than 50% reduction, Later use, %” value is 14.81%; the “No change, Later use, %” value was found to be 7.41%; the “≥50% reduction, Later use, %” value is reported as 25.93%. Also, in data set [4], the “Seizure control outcome: Complete control, Percent” value is given as 56.9%; the “Seizure control outcome: Less than 50% reduction, Percent” value worked out at 8.62%; the “Seizure control outcome: No change, Percent” value worked out at 5.17%; the “Seizure control outcome: ≥50% reduction, Percent” value is 29.31%.
On to `CCC1(c2ccccc2)C(=O)NC(=O)NC1=O` [Phenobarbital], for which, in data set [5], the Negative reports is reported as 5 and the Positive reports worked out at 0. Also, in data set [4], the “Seizure control outcome: Complete control, Percent” value came to 61.11%; the “Seizure control outcome: Increased number of seizure, Percent” value was determined as 2.78%; the “Seizure control outcome: Less than 50% reduction, Percent” value was found to be 11.11%; the “Seizure control outcome: No change, Percent” value is 13.89%. Also, the “Seizure control outcome: ≥50% reduction, Percent” value in data set [4] is listed as 11.11%.
As to `CC1(C)O[C@@H]2[C@@H](CO[C@@]3(COS(N)(=O)=O)OC(C)(C)O[C@@H]23)O1` [Topiramate], in data set [5], the Negative reports is reported as 4 and the Positive reports was 1.
Turning to `CCCC(CCC)C(=O)O` [Valproic acid], the “effectiveness of seizure treatment” value in data set [1] is recorded as “most effective”. Moreover, in data set [5], the Negative reports is 2 and the Positive reports was found to be 2. In data set [3], the “response to seizure treatment” value is “generally responded well”. For the same compound, in data set [4], the “Seizure control outcome: Complete control, Percent” value came out at 50%; the “Seizure control outcome: Less than 50% reduction, Percent” value is reported as 9.38%; the “Seizure control outcome: No change, Percent” value is 9.38%; the “Seizure control outcome: ≥50% reduction, Percent” value turned out to be 31.25%.
As to `Cc1ncc(CO)c(CO)c1O.Cl` [Vitamin B6], in data set [6], the “efficacy in treating seizures” value is “efficacious”.
For `Br` [bromide], the “effectiveness of seizure treatment” value in data set [1] was “most effective”.
